Source: patent EP0908457B1, “3-(1,2-benzisothiazol- and isoxazol-5-Y1)-2,4(1H,3H)-pyrimidinedione or thione and 3-(1,2-benzisothiazol- and isoxazol-5-y1)-4(3H)-pyrimidinone or thione herbicidal agents” (BASF AKTIENGESELLSCHAFT, priority 1997, dated 1999)

Experiments:
[1] = tested on: Echinochloa oryzoides (Ard.) Fritsch.; assay: Preemergence weed control under flooded paddy conditions, ECHORC (Watergrass (Calif.)); format: in vivo; conditions: preemergence weeds, flooded paddy, rated three to four weeks after treatment; further: meaning of each grade not given here
Cyperus iria = assay: Preemergence weed control under flooded paddy conditions, CYPIR (Rice Flatsedge); format: in vivo; conditions: preemergence weeds, flooded paddy, rated three to four weeks after treatment; further: meaning of each grade not given here
[2] = tested on: Cyperus serotinus, Rottb.; assay: Preemergence weed control under flooded paddy conditions, CYPSE (Flatsedge); format: in vivo; conditions: preemergence weeds, rated three to four weeks after treatment; further: meaning of each grade not given here
[3] = tested on: Monochoria vaginalis, Presl.; assay: Preemergence weed control under flooded paddy conditions, MOOVA (Monochoria); format: in vivo; conditions: preemergence weeds, flooded paddy, rated three to four weeks after treatment; further: meaning of each grade not given here
Sagittaria pygmaea, L. = assay: Preemergence weed control under flooded paddy conditions, SAGPY (Arrowhead (Pygmaea)); format: in vivo; conditions: preemergence weeds, flooded paddy, rated three to four weeks after treatment; further: meaning of each grade not given here
[4] = tested on: Oryza sativa, (L.) Tebonnet; assay: Rice tolerance to post-transplant applications under flooded paddy conditions (Example 187), ORYSAT (Rice, Tebonnet); conditions: rated three to four weeks after treatment

| SMILES | herbicidal effect rating, ECHORC ([1]; 0.0313 kg/ha) | herbicidal effect rating, ECHORC ([1]; 0.0625 kg/ha) | herbicidal effect rating, ECHORC ([1]; 0.1250 kg/ha) | herbicidal effect rating, ECHORC ([1]; 0.2500 kg/ha) | herbicidal effect rating, CYPIR (Cyperus iria; 0.0313 kg/ha) | herbicidal effect rating, CYPIR (Cyperus iria; 0.0625 kg/ha) | herbicidal effect rating, CYPIR (Cyperus iria; 0.1250 kg/ha) | herbicidal effect rating, CYPIR (Cyperus iria; 0.2500 kg/ha) | herbicidal effect rating, CYPSE ([2]; 0.0313 kg/ha) | herbicidal effect rating, CYPSE ([2]; 0.0625 kg/ha) | herbicidal effect rating, CYPSE ([2]; 0.1250 kg/ha) | herbicidal effect rating, CYPSE ([2]; 0.2500 kg/ha) | herbicidal effect rating, MOOVA ([3]; 0.0313 kg/ha) | herbicidal effect rating, MOOVA ([3]; 0.0625 kg/ha) | herbicidal effect rating, MOOVA ([3]; 0.1250 kg/ha) | herbicidal effect rating, MOOVA ([3]; 0.2500 kg/ha) | herbicidal effect rating, SAGPY (Sagittaria pygmaea, L.; 0.0313 kg/ha) | herbicidal effect rating, SAGPY (Sagittaria pygmaea, L.; 0.0625 kg/ha) | herbicidal effect rating, SAGPY (Sagittaria pygmaea, L.; 0.1250 kg/ha) | herbicidal effect rating, SAGPY (Sagittaria pygmaea, L.; 0.2500 kg/ha) | further results |
| --- | --- | --- | --- | --- | --- | --- | --- | --- | --- | --- | --- | --- | --- | --- | --- | --- | --- | --- | --- | --- | --- |
| CCOCc1nsc2ccc(-n3c(=O)cc(C(F)(F)F)n(C)c3=O)cc12 [Example 195, 3-[3-(Ethoxymethyl)-1,2-benzisothiazol-5-yl]-1-methyl-6-(trifluoromethyl)-2,4(1H,3H)-pyrimidinedione] | 2.0 | 3.0 | 6.0 | 9.0 | 0.0 | 2.0 | 4.0 | 9.0 | 0.0 | 0.0 | 2.0 | 7.0 | 9.0 | 9.0 | 9.0 | 9.0 | 0.0 | 0.0 | 1.0 | 2.0 | herbicidal effect rating, ORYSAT (rice tolerance) ([4]; 0.0313 kg/ha): 6.0; herbicidal effect rating, ORYSAT (rice tolerance) ([4]; 0.0625 kg/ha): 7.0; herbicidal effect rating, ORYSAT (rice tolerance) ([4]; 0.1250 kg/ha): 9.0; herbicidal effect rating, ORYSAT (rice tolerance) ([4]; 0.2500 kg/ha): 9.0 |
| C=CCOCc1nsc2ccc(-n3c(=O)cc(C(F)(F)F)n(C)c3=O)cc12 [Example 196, 3-{3-[(Allyloxy)methyl]-1,2-benzisothiazol-5-yl}-1-methyl-6-(trifluoromethyl)-2,4(1H,3H)-pyrimidinedione] | 0.0 | 2.0 | 4.0 | 4.0 | 0.0 | 0.0 | 1.0 | 4.0 | 2.0 | 4.0 | 6.0 | 9.0 | 9.0 | 9.0 | 9.0 | 9.0 | 0.0 | 0.0 | 0.0 | 0.0 | herbicidal effect rating, ORYSAT (rice tolerance) ([4]; 0.0313 kg/ha): 4.0; herbicidal effect rating, ORYSAT (rice tolerance) ([4]; 0.0625 kg/ha): 6.0; herbicidal effect rating, ORYSAT (rice tolerance) ([4]; 0.1250 kg/ha): 8.0; herbicidal effect rating, ORYSAT (rice tolerance) ([4]; 0.2500 kg/ha): 8.0 |
| Cn1c(C(F)(F)F)cc(=O)n(-c2ccc3snc(COCCCl)c3c2)c1=O [Example 198, 3-{3-[(2-Chloroethoxy)methyl]-1,2-benzisothiazol-5-yl}-1-methyl-6-(trifluoromethyl)-2,4(1H,3H)-pyrimidinedione] | 4.0 | 6.0 | 9.0 | 9.0 | 0.0 | 2.0 | 4.0 | 7.0 | 0.0 | 2.0 | 4.0 | 8.0 | 9.0 | 9.0 | 9.0 | 9.0 | 0.0 | 0.0 | 2.0 | 4.0 | herbicidal effect rating, ORYSAT (rice tolerance) ([4]; 0.0313 kg/ha): 4.0; herbicidal effect rating, ORYSAT (rice tolerance) ([4]; 0.0625 kg/ha): 7.0; herbicidal effect rating, ORYSAT (rice tolerance) ([4]; 0.1250 kg/ha): 8.0; herbicidal effect rating, ORYSAT (rice tolerance) ([4]; 0.2500 kg/ha): 9.0 |
| Cn1c(C(F)(F)F)cc(=O)n(-c2ccc3snc(C(CCl)CCl)c3c2)c1=O [Example 199, 3-{3-[2-Chloro-1-(chloromethyl)ethyl]-1,2-benzisothiazol-5-yl}-1-methyl-6-(trifluoromethyl)-2,4(1H,3H)-pyrimidinedione] | 2.0 | 4.0 | 7.0 | 7.0 | 0.0 | 2.0 | 4.0 | 8.0 | 0.0 | 0.0 | 0.0 | 0.0 | 8.0 | 9.0 | 9.0 | 9.0 | 0.0 | 0.0 | 0.0 | 0.0 | herbicidal effect rating, ORYSAT (rice tolerance) ([4]; 0.0313 kg/ha): 3.0; herbicidal effect rating, ORYSAT (rice tolerance) ([4]; 0.0625 kg/ha): 4.0; herbicidal effect rating, ORYSAT (rice tolerance) ([4]; 0.1250 kg/ha): 6.0; herbicidal effect rating, ORYSAT (rice tolerance) ([4]; 0.2500 kg/ha): 8.0 |
| CCOCCOCc1nsc2ccc(-n3c(=O)cc(C(F)(F)F)n(C)c3=O)cc12 [Example 200, 3-{3-[(2-Ethoxyethoxy)methyl]-1,2-benzisothiazol-5-yl}-1-methyl-6-(trifluoromethyl)-2,4(1H,3H)-pyrimidinedione] | 0.0 | 2.0 | 6.0 | 9.0 | 4.0 | 6.0 | 7.0 | 8.0 | 0.0 | 0.0 | 2.0 | 7.0 | 9.0 | 9.0 | 9.0 | 9.0 | 0.0 | 0.0 | 0.0 | 4.0 | herbicidal effect rating, ORYSAT (rice tolerance) ([4]; 0.0313 kg/ha): 7.0; herbicidal effect rating, ORYSAT (rice tolerance) ([4]; 0.0625 kg/ha): 7.0; herbicidal effect rating, ORYSAT (rice tolerance) ([4]; 0.1250 kg/ha): 9.0; herbicidal effect rating, ORYSAT (rice tolerance) ([4]; 0.2500 kg/ha): 9.0 |
| CC(C)SCc1nsc2ccc(-n3c(=O)cc(C(F)(F)F)n(C)c3=O)cc12 [Example 202, 3-{3-[(Isopropylthio)methyl]-1,2-benzisothiazol-5-yl]-1-methyl-6-(trifluoromethyl)-2,4(1H,3H)-pyrimidinedione] | 1.0 | 1.0 | 2.0 | 2.0 | 9.0 | 9.0 | 9.0 | 9.0 | 0.0 | 0.0 | 0.0 | 0.0 | 0.0 | 0.0 | 0.0 | 0.0 | 0.0 | 0.0 | 0.0 | 0.0 | herbicidal effect rating, ORYSAT (rice tolerance) ([4]; 0.0313 kg/ha): 3.0; herbicidal effect rating, ORYSAT (rice tolerance) ([4]; 0.0625 kg/ha): 4.0; herbicidal effect rating, ORYSAT (rice tolerance) ([4]; 0.1250 kg/ha): 5.0; herbicidal effect rating, ORYSAT (rice tolerance) ([4]; 0.2500 kg/ha): 6.0 |
| Cn1c(C(F)(F)F)cc(=O)n(-c2ccc3snc(COCC(F)F)c3c2)c1=O [Example 203, 3-{3-[(2,2-Difluoroethoxy)methyl]-1,2-benzisothiazol-5-yl}-1-methyl-6-(trifluoromethyl)-2,4(1H,3H)-pyrimidinedione] | 0.0 | 0.0 | 2.0 | 4.0 | 9.0 | 9.0 | 9.0 | 9.0 | 0.0 | 0.0 | 2.0 | 6.0 | 0.0 | 0.0 | 2.0 | 8.0 | 0.0 | 0.0 | 2.0 | 4.0 | herbicidal effect rating, ORYSAT (rice tolerance) ([4]; 0.0313 kg/ha): 4.0; herbicidal effect rating, ORYSAT (rice tolerance) ([4]; 0.0625 kg/ha): 6.0; herbicidal effect rating, ORYSAT (rice tolerance) ([4]; 0.1250 kg/ha): 6.0; herbicidal effect rating, ORYSAT (rice tolerance) ([4]; 0.2500 kg/ha): 7.0 |
